Test results: ChEMBL document CHEMBL4840380, “The Psychedelic Renaissance: Addressing Potential Adverse Effects in a Therapeutic Setting” (ACS Med Chem Lett, 2021)

Assays:
[1] = target: 5-hydroxytryptamine receptor 2A (Homo sapiens) (UniProt P28223); test: Agonist activity at 5HT2A receptor (unknown origin) expressed in HEK293 cells assessed as maximal effect by FLIPR calcium flux assay relative to control; assay type: functional, cell-based; details: filed as agonist
Mus musculus = test: Antipsychotic activity in sc dosed C57BL/6 mouse assessed as DOI-induced head twitching observed for 20 mins; assay type: functional, organism-based; details: dose 1-100 mg/kg

Chain of 5-hydroxytryptamine receptor 2A (Homo sapiens) (P28223 whole entry): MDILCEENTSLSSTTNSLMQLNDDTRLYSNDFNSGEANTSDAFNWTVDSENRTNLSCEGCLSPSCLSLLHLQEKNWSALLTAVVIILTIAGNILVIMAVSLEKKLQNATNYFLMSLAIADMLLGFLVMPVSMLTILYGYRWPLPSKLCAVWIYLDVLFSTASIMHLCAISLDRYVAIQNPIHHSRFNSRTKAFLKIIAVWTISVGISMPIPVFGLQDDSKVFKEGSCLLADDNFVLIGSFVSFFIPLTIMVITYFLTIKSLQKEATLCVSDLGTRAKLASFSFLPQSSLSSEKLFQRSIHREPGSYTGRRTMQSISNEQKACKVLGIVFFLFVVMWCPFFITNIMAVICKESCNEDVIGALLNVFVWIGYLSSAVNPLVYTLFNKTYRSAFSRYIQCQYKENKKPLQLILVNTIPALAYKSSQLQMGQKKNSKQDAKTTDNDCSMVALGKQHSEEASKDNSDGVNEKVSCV

In the case of CN(C)CCc1c[nH]c2ccccc12, the Emax [1] is reported as 93.4%.

CCCN(CC)CCc1c[nH]c2ccc(F)cc12 was tested, and the Activity (Mus musculus) was “Dose-Dependent Effect” and the Emax [1] was 104%.

CCN(C)CCc1c[nH]c2ccc(F)cc12 was tested, and the Activity (Mus musculus) was “Dose-Dependent Effect” and the Emax [1] was 87.6%.
